One series in a line: Analgesia (Table I). It is filed as in vivo. On the set-up: inhibition in vivo: dose or concentration left out as unconfirmed. Particulars: read-out: ANALGESIA % Inhibition; for inhibition in vivo at 10 mg/kg: @ 10 mpk (values marked *).
A further series relates to carrageenan foot edema. Kind of series: Rat carrageenan foot pad edema test. It is filed as in vivo, Male Sprague-Dawley rats. Particulars: po, 3 h, dosed orally, foot volume three hours after carrageenan, read-out: RAT PAW EDEMA % Inhibition; for inhibition in vivo at 10 mg/kg: @ 10 mpk (values marked *). On the set-up: inhibition in vivo: dose or concentration left out as unconfirmed. The method, then:
Rat Carrageenan Foot Pad Edema Test
Male Sprague-Dawley rats were selected in each group so that the average body weight was as close as possible. Rats were fasted with free access to water for over sixteen hours prior to the test. The rats were dosed orally (1 mL) with compounds suspended in vehicle containing 0.5% methylcellulose and 0.025% surfactant, or with vehicle alone. One hour later a subplantar injection of 0.1 mL of 1% solution of carrageenan/sterile 0.9% saline was administered and the volume of the injected foot was measured with a displacement plethysmometer connected to a pressure transducer with a digital indicator. Three hours after the injection of the carrageenan, the volume of the foot was again measured. The average foot swelling in a group of drug-treated animals was compared with that of a group of placebo-treated animals and the percentage inhibition of edema was determined (Otterness and Bliven, Laboratory Models for Testing NSAIDs, in Non-steroidal Anti-Inflammatory Drugs, (J. Lombardino, ed. 1985)).

Another series addresses COX-1 (UniProt P23219). Kind of series: Assay for COX-1 activity (PGE2 ELISA). Particulars: read-out: COX-1 IC50; 10–20 minutes pre-incubation, reaction stopped after ten minutes, pH 8.0. Background: An ELISA detects its analyte on a solid surface through an enzyme-linked reagent.
Series [1] deals with T1, COX-2 (UniProt P35354).
T1 sequence (P35354 1-604): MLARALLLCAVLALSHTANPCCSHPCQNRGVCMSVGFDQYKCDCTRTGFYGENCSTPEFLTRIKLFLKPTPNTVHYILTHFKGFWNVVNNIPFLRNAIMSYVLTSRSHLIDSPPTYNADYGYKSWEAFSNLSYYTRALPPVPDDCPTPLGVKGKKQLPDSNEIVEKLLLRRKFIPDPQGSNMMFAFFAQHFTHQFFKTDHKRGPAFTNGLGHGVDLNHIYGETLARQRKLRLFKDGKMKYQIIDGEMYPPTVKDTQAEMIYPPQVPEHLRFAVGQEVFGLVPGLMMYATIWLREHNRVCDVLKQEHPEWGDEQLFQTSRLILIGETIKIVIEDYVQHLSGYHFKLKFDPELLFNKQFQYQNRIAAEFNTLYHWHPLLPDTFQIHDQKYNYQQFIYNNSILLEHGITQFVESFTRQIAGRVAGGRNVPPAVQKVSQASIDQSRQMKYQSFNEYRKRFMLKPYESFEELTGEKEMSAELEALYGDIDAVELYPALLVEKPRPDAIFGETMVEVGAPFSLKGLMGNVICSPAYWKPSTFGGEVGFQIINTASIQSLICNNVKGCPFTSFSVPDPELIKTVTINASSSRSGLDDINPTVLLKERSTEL
Put plainly: Assay for COX-2 activity (PGE2 ELISA). The note with it: read-out: COX-2 IC50; 10–20 minutes pre-incubation, reaction stopped after ten minutes, pH 8.0.
Description: (§1) Recombinant baculoviruses were isolated by transfecting 4 μg of baculovirus transfer vector DNA into SF9 insect cells (2×10^8) along with 200 ng of linearized baculovirus plasmid DNA by the calcium phosphate method. […] Recombinant viruses were purified by three rounds of plaque purification and high titer (10^7–10^8 pfu/mL) stocks of virus were prepared. For large scale production, SF9 insect cells were infected in 10 liter fermentors (0.5×10^6/mL) with the recombinant baculovirus stock such that the multiplicity of infection was 0.1. […] The homogenate was centrifuged at 10,000×G for 30 minutes, and the resultant supernatant was stored at −80° C. before being assayed for COX activity.
Assay for COX-1 and COX-2 Activity
(§2) COX activity was assayed as PGE2 formed/μg protein/time using an ELISA to detect the prostaglandin released. CHAPS-solubilized insect cell membranes containing the appropriate COX enzyme were incubated in a potassium phosphate buffer (50 mM, pH 8.0) containing epinephrine, phenol, and heme with the addition of arachidonic acid (10 μM). […] The PGE2 formed was measured by standard ELISA technology (Cayman Chemical).

Series [2] concerns the target T1, COX-2. Put plainly: Fast assay for COX-2 activity (PGE2 ELISA). It is filed as biochemical, human or murine. Particulars: fast assay: 10 min pre-incubation at 25° C., reaction stopped after two minutes, pH 7.5.
Description: The homogenate was centrifuged at 10,000×G for 30 minutes, and the resultant supernatant was stored at −80° C. before being assayed for COX activity.
Fast Assay for COX-1 and COX-2 Activity
COX activity was assayed as PGE2 formed/μg protein/time using an ELISA to detect the prostaglandin released. CHAPS-solubilized insect cell membranes containing the appropriate COX enzyme were incubated in a potassium phosphate buffer (0.05 M Potassium phosphate, pH 7.5, 2 μM phenol,1 μM heme, 300 μM epinephrine) with the addition of 20 μl of 100 μM arachidonic acid (10 μM). […] The PGE2 formed was measured by standard ELISA technology (Cayman Chemical).

Molecules are shown by their SMILES.

Description for COX-1: as §1
Assay for COX-1 and COX-2 Activity
as §2

Regarding `O=C(O)C1=Cc2cc(Cl)cc(Cl)c2OC1C(F)(F)F` (stereo not drawn) [Example 32, 6,8-Dichloro-2-trifluoromethyl-2H-1-benzopyran-3-carboxylic acid], the inhibition in vivo at 10 mg/kg in “Analgesia (Table I)” was 73%; in the series with carrageenan foot edema, 59%.
The term melting point denotes the temperature, or range, at which the solid turns liquid. On to `C#Cc1ccc2c(c1)C=C(C(=O)O)C(C(F)(F)F)O2` (stereo not drawn) [Example 139, 6-(Ethynyl)-2-(trifluoromethyl)-2H-1-benzopyran-3-carboxylic acid], for which the melting point lay within 198 to 200 °C. For the same compound, in “Analgesia (Table I)”, the inhibition in vivo is 41%. The inhibition in vivo in the series with carrageenan foot edema was found to be 42%.
For the compound `O=C(O)C1=Cc2cc(Cl)ccc2N[C@@H]1C(F)(F)F` [Example 172, (S)-6-chloro-1,2-dihydro-2-(trifluoromethyl)-3-quinolinecarboxylic acid], the inhibition in vivo in the series “Analgesia (Table I)” turned out to be 67%; with carrageenan foot edema, 57%.
As a reminder, the IC50 is the point on the concentration scale where inhibition reaches its midpoint. Take `O=C(O)C1=Cc2cc(Cl)cc(Cl)c2SC1C(F)(F)F` (stereo not drawn) [Example 156, 6,8-Dichloro-2-trifluoromethyl-2H-1-benzothiopyran-3-carboxylic acid]: the melting point lay within 217.9 to 220.3 °C. Moreover, on COX-1, the IC50 stood at 100 nM. Besides, in “Analgesia (Table I)”, the inhibition in vivo is 66%. Further, the inhibition in vivo with carrageenan foot edema is 54%. Moreover, the IC50 on COX-2 [1] was less than 100 nM. At COX-2 [2], the IC50 was less than 100 nM.
In the case of `O=C(O)C1=Cc2cc(Cl)ccc2NC1C(F)(F)F` (stereo not drawn) [Example 157, 6-Chloro-1,2-dihydro-2-(trifluoromethyl)-3-quinolinecarboxylic acid], the inhibition in vivo at 10 mg/kg in “Analgesia (Table I)” turned out to be 36%; with carrageenan foot edema, 44%.
Regarding `O=C(O)C1=Cc2cc(Br)ccc2NC1C(F)(F)F` (stereo not drawn) [Example 161, 6-Bromo-1,2-dihydro-2-(trifluoromethyl)-3-quinolinecarboxylic acid], the inhibition in vivo worked out at 56% in “Analgesia (Table I)” and 53% in the series with carrageenan foot edema.
`O=C(O)C1=Cc2cc(OC(F)(F)F)ccc2OC1C(F)(F)F` (stereo not drawn) [Example 16, 6-Trifluoromethoxy-2-trifluoromethyl-2H-1-benzopyran-3-carboxylic acid]: on COX-1, the IC50 turned out to be 51000 nM. In addition, the inhibition in vivo in “Analgesia (Table I)” is 34%; with carrageenan foot edema it was 48%.
In turn, `O=C(O)C1=Cc2cc(Oc3ccc(C(F)(F)F)cc3)cc(Cl)c2OC1C(F)(F)F` (stereo not drawn) [Example 105] displayed a melting point of 223.7 to 226 °C. The IC50 at COX-1 came to 100 nM. Also, the inhibition in vivo in the series “Analgesia (Table I)” is 69%. Besides, the inhibition in vivo in the series with carrageenan foot edema was 75%. For the same compound, the IC50 on COX-2 [1] is 200 nM. This compound also gave a half-inhibitory concentration (IC50) against COX-2 [2] of 300 nM.
In the case of `O=C(O)C1=Cc2cc(C(F)F)ccc2OC1C(F)(F)F` (stereo not drawn) [Example 81, 6-(Difluoromethyl)-2-(trifluoromethyl)-2H-1-benzopyran-3-carboxylic acid], the IC50 at COX-1 was 1600 nM; at COX-2 [1], less than 100 nM; against COX-2 [2], less than 100 nM. The inhibition in vivo in the series “Analgesia (Table I)” is 44%; in the series on carrageenan foot edema, 36%.
On to `CN1c2ccc(Cl)cc2C=C(C(=O)O)C1C(F)(F)F` (stereo not drawn) [Example 165, 6-Chloro-1,2-dihydro-1-methyl-2-(trifluoromethyl)-3-quinolinecarboxylic acid], for which the melting point was 208 to 209 °C. The inhibition in vivo at 10 mg/kg in the series “Analgesia (Table I)” was determined as 33%. Further, the inhibition in vivo at 10 mg/kg in the series on carrageenan foot edema came to 30%.
`O=C(O)C1=Cc2cc(Cl)ccc2SC1C(F)(F)F` (stereo not drawn) [Example 65, 6-Chloro-2-trifluoromethyl-2H-1-benzothiopyran-3-carboxylic acid] registered a melting point of 188.8 to 198.7 °C. Moreover, in the series “Analgesia (Table I)”, the inhibition in vivo came to 32%. Besides, in the series on carrageenan foot edema, the inhibition in vivo came to 43%. Besides, on COX-2 [2], the IC50 was less than 100 nM.
On to `O=C(O)C1=Cc2c(cc(Cl)c(Cl)c2Cl)OC1C(F)(F)F` (stereo not drawn) [Example 83, 5,6,7-Trichloro-2-(trifluoromethyl)-2H-1-benzopyran-3-carboxylic acid], for which the half-inhibitory concentration (IC50) on COX-1 is 1400 nM; at COX-2 [1] it was less than 100 nM; at COX-2 [2], less than 100 nM. The inhibition in vivo in “Analgesia (Table I)” turned out to be 65%; in the series on carrageenan foot edema it was 56%.
In turn, `N#Cc1ccc2c(c1)C=C(C(=O)O)C(C(F)(F)F)O2` (stereo not drawn) [Example 79, 6–Cyano-2-(trifluoromethyl)-2H-1-benzopyran-3-carboxylic acid] registered a melting point of 185.1 to 186.1 °C. Besides, the inhibition in vivo in the series “Analgesia (Table I)” was found to be 53%. The inhibition in vivo in the series with carrageenan foot edema is 45%.
For the compound `CC(C)(C)c1cc2c(cc1Cl)C=C(C(=O)O)C(C(F)(F)F)O2` (stereo not drawn) [Example 8, 6-Chloro-7-(1,1-dimethylethyl)-2-trifluoromethyl-2H-1-benzopyran-3-carboxylic acid], the values for the inhibition in vivo in “Analgesia (Table I)” and with carrageenan foot edema were 36% and 43%, respectively.
`C#Cc1cc(Cl)cc2c1OC(C(F)(F)F)C(C(=O)O)=C2` (stereo not drawn) [Example 115, 6-Chloro-8-ethynyl-2-(trifluoromethyl)-2H-1-benzopyran-3-carboxylic acid] yielded a melting point of 186.2 to 189 °C. Further, on COX-1, the IC50 was less than 100 nM. Also, in “Analgesia (Table I)”, the inhibition in vivo came out at 62%. In addition, in the series on carrageenan foot edema, the inhibition in vivo was 52%. Moreover, the 50% inhibitory concentration (IC50) on COX-2 [1] was less than 100 nM. This compound also gave an IC50 at COX-2 [2] of less than 100 nM.
Consider `O=C(O)C1=Cc2cc(Cl)c(Cl)c(Cl)c2OC1C(F)(F)F` (stereo not drawn) [Example 84, 6,7,8-Trichloro-2-(trifluoromethyl)-2H-1-benzopyran-3-carboxylic acid], for which the IC50 at COX-1 was 2800 nM; at COX-2 [1] it was less than 100 nM. Further, the inhibition in vivo in “Analgesia (Table I)” came out at 24%; in the series with carrageenan foot edema, 44%.
Turning to `O=C(O)C1=Cc2cc(Cl)ccc2OC1C(F)(F)F` (stereo not drawn) [Example 1, 6-Chloro-2-trifluoromethyl-2H-1-benzopyran-3-carboxylic acid], the inhibition in vivo in “Analgesia (Table I)” was 58%; with carrageenan foot edema, 57%. The compound also showed a half-maximal inhibitory concentration (IC50) on COX-2 [2] of 300 nM.
The compound `O=C(O)C1=Cc2cc(I)ccc2OC1C(F)(F)F` (stereo not drawn) [Example 24, 6-Iodo-2-trifluoromethyl-2H-1-benzopyran-3-carboxylic acid] showed a melting point of 168 to 170 °C. In addition, the inhibition in vivo in “Analgesia (Table I)” turned out to be 25%. Also, the inhibition in vivo with carrageenan foot edema was 29%.
For the compound `O=C(O)C1=Cc2cc(Cl)cc(Cl)c2NC1C(F)(F)F` (stereo not drawn) [Example 158, 6,8-Dichloro-1,2-dihydro-2-(trifluoromethyl)-3-quinolinecarboxylic acid], the inhibition in vivo at 10 mg/kg in the series “Analgesia (Table I)” came out at 55%; in the series on carrageenan foot edema, 45%.
In the case of `Cc1cc(Cl)c2c(c1)C=C(C(=O)O)C(C(F)(F)F)O2` (stereo not drawn) [Example 39, 8-Chloro-6-methyl-2-trifluoromethyl-2H-1-benzopyran-3-carboxylic acid], the IC50 on COX-1 is greater than 100000 nM. In addition, the values for the inhibition in vivo in “Analgesia (Table I)” and in the series with carrageenan foot edema were 8% and 18%, respectively.
Regarding `Cc1cc(Cl)cc2c1OC(C(F)(F)F)C(C(=O)O)=C2` (stereo not drawn) [Example 38, 6-Chloro-8-methyl-2-trifluoromethyl-2H-1-benzopyran-3-carboxylic acid], the half-inhibitory concentration (IC50) on COX-1 came out at 57000 nM. Besides, the inhibition in vivo in the series “Analgesia (Table I)” was 55%; in the series with carrageenan foot edema it was 47%.
With `CC(C)(C)c1ccc2c(c1)OC(C(F)(F)F)C(C(=O)O)=C2` (stereo not drawn) [Example 12, 7-(1,1-Dimethylethyl)-2-trifluoromethyl-2H-1-benzopyran-3-carboxylic acid], the inhibition in vivo in “Analgesia (Table I)” is 37%; with carrageenan foot edema, 30%. The compound also registered an IC50 against COX-2 [2] of 7000 nM.
Consider `O=C(O)C1=Cc2cc(Cl)c(Cl)cc2OC1C(F)(F)F` (stereo not drawn) [Example 31, 6,7-Dichloro-2-trifluoromethyl-2H-1-benzopyran-3-carboxylic acid], for which the inhibition in vivo at 10 mg/kg in the series “Analgesia (Table I)” stood at 37%; with carrageenan foot edema, 39%. Moreover, the IC50 against COX-2 [2] was less than 100 nM.

Source of the values: patent publication US7138411B2, “Substituted benzopyran derivatives for the treatment of inflammation” (G.D. Searle & Co., priority 1997, dated 2006).
